Results: BigSolDB 2.1

C/C(=C/C(C)=N/c1c(C(C)C)cccc1C(C)C)Nc1c(C(C)C)cccc1C(C)C
solubility (mole fraction)
Conditions	in THF	in ethanol	in methanol	in n-hexane	in toluene
268.15 K	0.101	0.0008	–	0.0374	0.054
273.15 K	0.108	0.0009	–	0.0417	0.061
278.15 K	0.114	0.001	–	0.0464	0.0673
283.15 K	0.122	0.0013	0.0001	0.048	0.078
288.15 K	0.138	0.0015	0.0002	0.0546	0.087
293.15 K	0.15	0.0019	0.0002	0.0609	0.099
298.15 K	0.169	0.0022	0.0003	0.0699	0.108
303.15 K	0.184	0.0025	0.0004	0.078	0.127
308.15 K	0.199	0.003	0.0005	0.0891	0.145
313.15 K	0.223	0.0036	0.0007	0.103	0.151
318.15 K	–	–	0.0008	–	–
